16 molecules from patent publication US20250230165A1, “HETEROCYCLIC COMPOUNDS FOR USE IN THE TREATMENT OF CANCER” (ARTIOS PHARMA LIMITED, priority 2021, published 2025) can be followed below.

Molecules are shown by their SMILES.

The test addresses T1, Human Polθ polymerase domain (aa1820-2590) (Homo sapiens, UniProt O75417).
T1 construct: Human Polθ polymerase domain (aa1820-2590) was expressed in E. coli; made in house; host or cells: E. coli
T1 sequence (O75417 1820-2590): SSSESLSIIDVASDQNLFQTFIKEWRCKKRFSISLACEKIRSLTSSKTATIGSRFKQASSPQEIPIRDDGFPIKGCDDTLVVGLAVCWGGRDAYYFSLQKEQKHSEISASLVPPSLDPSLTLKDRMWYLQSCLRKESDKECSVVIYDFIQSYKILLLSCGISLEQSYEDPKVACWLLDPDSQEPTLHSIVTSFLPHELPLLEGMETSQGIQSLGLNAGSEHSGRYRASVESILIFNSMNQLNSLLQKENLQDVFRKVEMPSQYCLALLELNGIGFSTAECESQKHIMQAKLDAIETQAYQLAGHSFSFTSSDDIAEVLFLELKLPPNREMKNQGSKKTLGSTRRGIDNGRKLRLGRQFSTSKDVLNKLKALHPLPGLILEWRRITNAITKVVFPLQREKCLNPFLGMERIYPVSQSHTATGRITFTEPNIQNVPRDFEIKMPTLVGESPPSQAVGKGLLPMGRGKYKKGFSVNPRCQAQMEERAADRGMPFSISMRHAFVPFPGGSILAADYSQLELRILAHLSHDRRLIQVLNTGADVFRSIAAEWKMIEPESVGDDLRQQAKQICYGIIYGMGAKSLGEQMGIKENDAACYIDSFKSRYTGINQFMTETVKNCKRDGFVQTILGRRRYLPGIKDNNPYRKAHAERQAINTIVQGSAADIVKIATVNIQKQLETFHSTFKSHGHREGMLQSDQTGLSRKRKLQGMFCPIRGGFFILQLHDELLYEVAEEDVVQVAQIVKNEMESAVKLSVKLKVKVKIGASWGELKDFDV
In words: Polθ Polymerase Domain Kinact/KI Assay (PicoGreen). In kind it is biochemical. The note with it: 0.8 nM Polθ, 100 nM DNA substrate, kobs vs [I] fit for 2-step covalent inhibitor. The method, boiled down:
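Kinact and KI derive from fitting kobs versus [I], where kobs were fitted from EDTA-stopped PicoGreen time courses (up to 60 min) in Tris pH 7.5 buffer with 1% DMSO, 0.8 nM enzyme, 100 nM DNA and […].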
In the case of `C=CC(=O)N1CC(n2cnc(CN3C[C@H]4CC(=O)N(c5cc(C(F)(F)F)cc(C)n5)[C@@H]4C(=O)N(C)c4cccc(C)c43)n2)C1` [Example 139, (3aR,11aS)-5-((1-(1-acryloylazetidin-3-yl)-1H-1,2,4-triazol-3-yl)methyl)-6,10-dimethyl-1-(6-methyl-4-(trifluoromethyl)pyridin-2-yl)-1,3a,4,5,10,11a-hexahydro-2H-benzo[b]pyrrolo[2,3-f][1,4]diazocine-2,11(3H)-dione], the Kinact/Kl is 2.37e+06 M⁻¹ s⁻¹.
Regarding `Cc1cc(C(F)(F)F)cc(N2C(=O)C[C@@H]3CN(Cc4ccn(C5CN(C(=O)/C=C/CN(C)C)C5)n4)c4c(F)cccc4N(C)C(=O)[C@H]32)n1` [Example 145, (3aR, 11aS)-5-((1-(1-((E)-4-(dimethylamino)but-2-enoyl)azetidin-3-yl)-1H-pyrazol-3-yl)methyl)-6-fluoro-10-methyl-1-(6-methyl-4-(trifluoromethyl)pyridin-2-yl)-1,3a,4,5,10,11a-hexahydro-2H-benzo[b]pyrrolo[2,3-f][1,4]diazocine-2,11(3H)-dione], the Kinact/Kl was found to be 1.34e+06 M⁻¹ s⁻¹.
In the case of `Cc1cc(C(F)(F)F)cc(N2C(=O)C[C@@H]3CN(Cc4ccc(C5CN(C(=O)/C=C/CN(C)C)C5)cc4)c4c(F)cccc4N(C)C(=O)[C@H]32)n1` [Example 146, (3aR,11aS)-5-(4-(1-((E)-4-(dimethylamino)but-2-enoyl)azetidin-3-yl)benzyl)-6-fluoro-10-methyl-1-(6-methyl-4-(trifluoromethyl)pyridin-2-yl)-1,3a,4,5,10,11a-hexahydro-2H-benzo[b]pyrrolo[2,3-f][1,4]diazocine-2,11(3H)-dione], the Kinact/Kl was determined as 1.68e+06 M⁻¹ s⁻¹.
The result for `Cc1cc(C(F)(F)F)cc(N2C(=O)C[C@@H]3CN(Cc4cccc(C5CN(C(=O)/C=C/CN(C)C)C5)c4)c4c(F)cccc4N(C)C(=O)[C@H]32)n1` [Example 147, (3aR,11aS)-5-(3-(1-((E)-4-(dimethylamino)but-2-enoyl)azetidin-3-yl)benzyl)-6-fluoro-10-methyl-1-(6-methyl-4-(trifluoromethyl)pyridin-2-yl)-1,3a,4,5,10,11a-hexahydro-2H-benzo[b]pyrrolo[2,3-f][1,4]diazocine-2,11(3H)-dione] reads 610000 M⁻¹ s⁻¹; that for `Cc1cc(C(F)(F)F)cc(N2C(=O)C[C@@H]3CN(Cc4ccc5c(c4)CN(C(=O)/C=C/CN(C)C)C5)c4c(F)cccc4N(C)C(=O)[C@H]32)n1` [Example 148, (3aR,11aS)-5-((2-((E)-4-(dimethylamino)but-2-enoyl)isoindolin-5-yl)methyl)-6-fluoro-10-methyl-1-(6-methyl-4-(trifluoromethyl)pyridin-2-yl)-1,3a,4,5,10,11a-hexahydro-2H-benzo[b]pyrrolo[2,3-f][1,4]diazocine-2,11(3H)-dione], 1.65e+06 M⁻¹ s⁻¹; that for `Cc1cc(C(F)(F)F)cc(N2C(=O)C[C@@H]3CN(Cc4ccc5c(c4)CCN(C(=O)/C=C/CN(C)C)C5)c4c(F)cccc4N(C)C(=O)[C@H]32)n1` [Example 149, (3aR, 11aS)-5-((2-((E)-4-(dimethylamino)but-2-enoyl)-1,2,3,4-tetrahydroisoquinolin-6-yl)methyl)-6-fluoro-10-methyl-1-(6-methyl-4-(trifluoromethyl)pyridin-2-yl)-1,3a,4,5,10,11a-hexahydro-2H-benzo[b]pyrrolo[2,3-f][1,4]diazocine-2,11(3H)-dione], 1.08e+06 M⁻¹ s⁻¹.
Next, `C=C(CN(C)C)C(=O)N1CC(OCCCN2C[C@H]3CC(=O)N(c4cc(C(F)(F)F)cc(C)n4)[C@@H]3C(=O)N(C)c3cccc(F)c32)C1` [Example 150, (3aR, 11aS)-5-(3-((1-(2-((dimethylamino)methyl)acryloyl)azetidin-3-yl)oxy)propyl)-6-fluoro-10-methyl-1-(6-methyl-4-(trifluoromethyl)pyridin-2-yl)-1,3a,4,5,10,11a-hexahydro-2H-benzo[b]pyrrolo[2,3-f][1,4]diazocine-2,11(3H)-dione]: 3.35e+06 M⁻¹ s⁻¹; `C=C(CN(C)C)C(=O)N1CC(c2ccc(CN3C[C@H]4CC(=O)N(c5cc(C(F)(F)F)cc(C)n5)[C@@H]4C(=O)N(C)c4cccc(F)c43)cc2)C1` [Example 151, (3aR, 11aS)-5-(4-(1-(2-((dimethylamino)methyl)acryloyl)azetidin-3-yl)benzyl)-6-fluoro-10-methyl-1-(6-methyl-4-(trifluoromethyl)pyridin-2-yl)-1,3a,4,5,10,11a-hexahydro-2H-benzo[b]pyrrolo[2,3-f][1,4]diazocine-2,11(3H)-dione]: 2.04e+06 M⁻¹ s⁻¹; `C=C(CN(C)C)C(=O)N1CC(c2cccc(CN3C[C@H]4CC(=O)N(c5cc(C(F)(F)F)cc(C)n5)[C@@H]4C(=O)N(C)c4cccc(F)c43)c2)C1` [Example 152, (3aR, 11aS)-5-(3-(1-(2-((dimethylamino)methyl)acryloyl)azetidin-3-yl)benzyl)-6-fluoro-10-methyl-1-(6-methyl-4-(trifluoromethyl)pyridin-2-yl)-1,3a,4,5,10,11a-hexahydro-2H-benzo[b]pyrrolo[2,3-f][1,4]diazocine-2,11(3H)-dione]: 5.05e+06 M⁻¹ s⁻¹.
On to `C=C(CN(C)C)C(=O)N1Cc2ccc(CN3C[C@H]4CC(=O)N(c5cc(C(F)(F)F)cc(C)n5)[C@@H]4C(=O)N(C)c4cccc(F)c43)cc2C1` [Example 153, (3aR, 11aS)-5-((2-(2-((dimethylamino)methyl)acryloyl)isoindolin-5-yl)methyl)-6-fluoro-10-methyl-1-(6-methyl-4-(trifluoromethyl)pyridin-2-yl)-1,3a,4,5,10,11a-hexahydro-2H-benzo[b]pyrrolo[2,3-f][1,4]diazocine-2,11(3H)-dione], for which the Kinact/Kl was 1.51e+06 M⁻¹ s⁻¹.
Next, `C=C(CN(C)C)C(=O)N1CCc2cc(CN3C[C@H]4CC(=O)N(c5cc(C(F)(F)F)cc(C)n5)[C@@H]4C(=O)N(C)c4cccc(F)c43)ccc2C1` [Example 154, (3aR, 11aS)-5-((2-(2-((dimethylamino)methyl)acryloyl)-1,2,3,4-tetrahydroisoquinolin-6-yl)methyl)-6-fluoro-10-methyl-1-(6-methyl-4-(trifluoromethyl)pyridin-2-yl)-1,3a,4,5,10,11a-hexahydro-2H-benzo[b]pyrrolo[2,3-f][1,4]diazocine-2,11(3H)-dione]: 2.3e+06 M⁻¹ s⁻¹.
Next, `Cc1cc(C(F)(F)F)cc(N2C(=O)C[C@@H]3CN(CC4CCC(C5CN(C(=O)/C=C/CN(C)C)C5)CC4)c4c(Cl)cccc4N(C)C(=O)[C@H]32)n1` (stereo partly drawn) [Example 155, (3aR, 11aS)-6-chloro-5-((4-(1-((E)-4-(dimethylamino)but-2-enoyl)azetidin-3-yl)cyclohexyl)methyl)-10-methyl-1-(6-methyl-4-(trifluoromethyl)pyridin-2-yl)-1,3a,4,5,10,11a-hexahydro-2H-benzo[b]pyrrolo[2,3-f][1,4]diazocine-2,11(3H)-dione]: 2.51e+06 M⁻¹ s⁻¹; `C=C(CN(C)C)C(=O)N1CC(OCCCN2C[C@H]3CC(=O)N(c4cc(C(F)(F)F)cc(C)n4)[C@@H]3C(=O)N(C)c3cccc(Cl)c32)C1` [Example 156, (3aR,11aS)-6-chloro-5-(3-((1-(2-((dimethylamino)methyl)acryloyl)azetidin-3-yl)oxy)propyl)-10-methyl-1-(6-methyl-4-(trifluoromethyl)pyridin-2-yl)-1,3a,4,5,10,11a-hexahydro-2H-benzo[b]pyrrolo[2,3- ][1,4]diazocine-2,11(3H)-dione]: 3.95e+06 M⁻¹ s⁻¹.
The result for `C=C(CN(C)C)C(=O)N1CCC(OCCN2C[C@H]3CC(=O)N(c4cc(C(F)(F)F)cc(C)n4)[C@@H]3C(=O)N(C)c3cccc(Cl)c32)CC1` [Example 157, (3aR,11aS)-6-chloro-5-(2-((1-(2-((dimethylamino)methyl)acryloyl)piperidin-4-yl)oxy)ethyl)-10-methyl-1-(6-methyl-4-(trifluoromethyl)pyridin-2-yl)-1,3a,4,5,10,11a-hexahydro-2H-benzo[b]pyrrolo[2,3-f][1,4]diazocine-2,11(3H)-dione] reads 1.57e+06 M⁻¹ s⁻¹; that for `C=C(CN(C)C)C(=O)N1CCC(CCCN2C[C@H]3CC(=O)N(c4cc(C(F)(F)F)cc(C)n4)[C@@H]3C(=O)N(C)c3cccc(Cl)c32)CC1` [Example 158, (3aR,11aS)-6-chloro-5-(3-(1-(2-((dimethylamino)methyl)acryloyl)piperidin-4-yl)propyl)-10-methyl-1-(6-methyl-4-(trifluoromethyl)pyridin-2-yl)-1,3a,4,5,10,11a-hexahydro-2H-benzo[b]pyrrolo[2,3-f][1,4]diazocine-2,11(3H)-dione], 3.72e+06 M⁻¹ s⁻¹; that for `C=C(CN(C)C)C(=O)N1CCn2cc(CN3C[C@H]4CC(=O)N(c5cc(C(F)(F)F)cc(C)n5)[C@@H]4C(=O)N(C)c4cccc(Cl)c43)nc2C1` [Example 159], 3.07e+06 M⁻¹ s⁻¹.
